In the data set the test system is T1, erg-mediated K+ channel (Kerg, KV11).
T1 construct: gene Kcnh2; native channel in GH3 pituitary tumor cells
The data set is described as follows: whole-cell patch clamp of native IK(erg) in GH3 cells. The class given is cell-based.

SMILES strings stand for the structures.

In turn, `CC1=CC(=O)c2cccc(O)c2C1=O` [isoPLB, 8-hydroxy-2-methylnaphthalene-1,4-dione] displayed a half-inhibitory concentration (IC50) of 2400 nM.

Values taken from article PMC9029050, “The Effectiveness of Isoplumbagin and Plumbagin in Regulating Amplitude, Gating Kinetics, and Voltage-Dependent Hysteresis of erg-mediated K^+ Currents” (Biomedicines, 2022).
